Assay results published in patent publication US8889662B2, “Method to alter sex ratios in avian offspring” (University of Georgia Research Foundation, Inc., priority 2009, dated 2014).

Legend:
laying hens = assay: Preliminary studies with silastic CORT implants: CORT concentrations and laying patterns; type: in vivo, chicken
Procedure: Additionally, concentrations of CORT and three other hormonal factors known to interact with CORT and ovarian follicular development—testosterone, progesterone, and leptin—will be measured in blood samples taken 4 h after ovulation as well as 4 and 6 h prior to ovulation in females from both treatment groups on days 3, 6, and 12 (to correspond with ovulation of collected eggs above). CORT concentrations will be measured in the yolk of each collected egg as well. […] Additionally, laying patterns were monitored for 2 weeks following implantation and 100% of birds implanted with CORT implants continued to lay at a similar frequency compared to before implantation, illustrating that we will be able to collect eggs from birds following this chronic implant treatment.

[1] = test system: zebra finch (Taeniopygia guttata); assay: Example 1: offspring sex after a single maternal CORT injection at sex chromosome segregation, zebra finches; type: in vivo; conditions: 20 ug CORT about 19 h after first egg, third egg of sequence, control injected 46%
Procedure: This experiment was conducted to determine whether a single injection of CORT at the critical time of sex chromosome segregation is sufficient to skew offspring sex ratios towards females. Female zebra finches were monitored for signs of nest-building and egg-laying. Approximately 19 h following the appearance of the first egg (1 h before sex chromosome segregation), females received one of two treatments: (1) a high dose of CORT (20 ug in 50 ul peanut oil), or (2) a control treatment (50 ul peanut oil). Because oviposition and ovulation are nearly concurrent, ovulation of the second egg took place when the first egg was laid. Thus, the egg that would be affected by our treatment was the third egg in the sequence. Eggs were labeled as they were laid and were collected after 6 d of incubation for molecular sexing analysis as described above. The percentage of females producing male offspring in each group were calculated and compared using chi square analyses. Blood samples were taken from a subset of females 1 h and 2.5 h post injection to verify that the CORT injection did, in fact, elevate circulating maternal CORT concentrations. CORT was quantified using a standard radioimmunoassay and CORT concentrations were log transformed and analyzed using an analysis of variance (ANOVA).

[2] = Plasma corticosterone in hens after CORT injections (FIG. 9); type: in vivo, chicken; conditions: 0.5 mg CORT in peanut oil (physiologically high dose)
Procedure: FIG. 9. Plasma corticosterone concentrations in hens after injections of 1.5 mg CORT, 0.5 mg CORT, oil control, and uninjected.
To test for a dose-dependent effect of CORT on sex ratios, female leghorns will be housed in layer cages, provided access to food and water ad libitum and will be randomly divided into one of seven treatment groups (n=72 each). […] To test whether CORT is a mediator in the sex determination process, one group from each of these treatment sets will also receive a dose of RU-486 (0.5 mg dissolved in 500 ul dH20), a glucocorticoid receptor blocker, administered 15 min prior to the injection treatment itself. […] As a result, treatment with RU-486 should not interrupt normal laying cycles. One final group will receive no injection treatment.

SMILES: C[C@]12C[C@H](O)[C@H]3[C@@H](CCC4=CC(=O)CC[C@@]43C)[C@@H]1CC[C@@H]2C(=O)CO [corticosterone]
- implanted birds that continued to lay at a similar frequency (laying hens; silastic CORT implants, laying monitored for 2 weeks after implantation): 100%
- CORT concentrations after silastic CORT implants (laying hens; within 2 d of implantation, persisted 1 week after implantation): significantly elevated CORT concentrations
- eggs that were male (primary sex ratio) [1]: 71%
- CORT concentrations reached [2]: below 40 ng/ml
